Measured values as given in patent publication US12600726B2, “Antagonists of the muscarinic acetylcholine receptor M4” (Vanderbilt University, priority 2017, dated 2026).

Experiments:
Rat M4 = target: T1, Rat M4 (Rattus norvegicus, UniProt P08485); assay: mAChR M4 cell-based functional calcium flux assay (rat M4/Gqi5/CHO cells); conditions: for Emin (rat M4): % ACh maximum at 30 μM
T1 construct: expressed in transfected cells; host or cells: CHO-K1 (ATCC), stably expressing M4 and Gqi5
T1 sequence (P08485 1-478): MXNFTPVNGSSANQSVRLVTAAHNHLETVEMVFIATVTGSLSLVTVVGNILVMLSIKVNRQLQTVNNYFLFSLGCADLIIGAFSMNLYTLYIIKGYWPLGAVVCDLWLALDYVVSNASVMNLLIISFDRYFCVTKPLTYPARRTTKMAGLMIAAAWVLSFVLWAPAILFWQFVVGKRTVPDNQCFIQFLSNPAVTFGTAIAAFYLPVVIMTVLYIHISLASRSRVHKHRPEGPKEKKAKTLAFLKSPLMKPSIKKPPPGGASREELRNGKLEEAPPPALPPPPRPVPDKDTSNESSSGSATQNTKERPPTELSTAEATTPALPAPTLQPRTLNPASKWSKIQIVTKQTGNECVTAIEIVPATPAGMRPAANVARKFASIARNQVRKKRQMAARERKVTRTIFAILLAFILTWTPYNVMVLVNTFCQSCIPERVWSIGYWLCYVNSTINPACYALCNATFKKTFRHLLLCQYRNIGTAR
Summary of the method: (§1)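 CHO-K1 cells stably co-expressing M4 of the given species with chimeric Gqi5 were loaded with Fluo-4 AM and read for calcium flux. Compounds (10-point, 1:3 dilutions) were added first, followed by an acetylcholine EC20 at 143 s and an EC80 at 268 s. IC50 reflects the concentration-dependent fall in the EC80 response, fitted with a four-parameter logistic.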

Human M4 = target: T2, Human M4 (Homo sapiens, UniProt P08173); assay: mAChR M4 cell-based functional calcium flux assay (human M4/Gqi5/CHO cells); conditions: for Emin (human M4): % ACh maximum at 30 μM; for IC50: decrease of the response to an EC80 concentration of acetylcholine
T2 construct: expressed in transfected cells; host or cells: CHO-K1 (ATCC), stably expressing M4 and Gqi5
T2 sequence (P08173 1-479): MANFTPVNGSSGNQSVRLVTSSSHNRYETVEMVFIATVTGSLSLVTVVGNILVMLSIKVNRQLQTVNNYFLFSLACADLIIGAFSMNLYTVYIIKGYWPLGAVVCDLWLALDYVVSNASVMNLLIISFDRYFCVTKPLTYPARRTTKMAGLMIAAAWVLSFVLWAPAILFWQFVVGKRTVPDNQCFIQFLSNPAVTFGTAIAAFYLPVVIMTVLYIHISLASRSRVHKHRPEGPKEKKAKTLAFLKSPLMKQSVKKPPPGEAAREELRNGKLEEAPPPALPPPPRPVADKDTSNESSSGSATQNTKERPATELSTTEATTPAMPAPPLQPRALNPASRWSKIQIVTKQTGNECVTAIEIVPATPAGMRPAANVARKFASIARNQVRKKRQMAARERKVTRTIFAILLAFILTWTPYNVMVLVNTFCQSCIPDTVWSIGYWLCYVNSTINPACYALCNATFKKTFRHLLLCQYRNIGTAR
Summary of the method: as §1

[1] = decrease of the response to an EC80 concentration of acetylcholine

Row | Structure (SMILES) | Emin (rat M4) (Rat M4) [%] | IC50 (Rat M4; [1]) [µM] | Emin (human M4) (Human M4) [%] | IC50 (Human M4) [nM] | IC50 (Rat M4; cells printed in μM, decrease of the EC80 acetylcholine response) [µM]
1 | CC(C)(C)CCN1CCC2(CC1)CC2CNc1ccc(-c2ccc(F)cc2Cl)nn1 (stereo not shown) [Compound 24, 6-(2-chloro-4-fluoro-phenyl)-N-[[6-(3,3-dimethylbutyl)-6-azaspiro[2.5]octan-2-yl]methyl]pyridazin-3-amine] | 3.19 | 0.159 | 2.81 | 42.8 | –
2 | CC(CN1CCC2(CC1)CC2C(=O)Nc1ccc(-c2cc(F)ccc2Cl)nn1)C(C)(C)C (stereo not shown) [Compound 19, N-[6-(2-chloro-5-fluoro-phenyl)pyridazin-3-yl]-6-(2,3,3-trimethylbutyl)-6-azaspiro[2.5]octane-2-carboxamide] | 34.9 | – | 6.57 | 5060 | > 10
3 | CC(C)(C)CCN1CCC2(CC1)CC2CNc1ccc(-c2ccc(F)cc2F)nn1 (stereo not shown) [Compound 28, 6-(2,4-difluorophenyl)-N-[[6-(3,3-dimethylbutyl)-6-azaspiro[2.5]octan-2-yl]methyl]pyridazin-3-amine] | 2.59 | 0.261 | 2.74 | 55.7 | –
4 | CC(C)(C)CCN1CCC2(CC1)CC2CNc1ccc(-c2cc(F)ccc2F)nn1 (stereo not shown) [Compound 30, 6-(2,5-difluorophenyl)-N-[[6-(3,3-dimethylbutyl)-6-azaspiro[2.5]octan-2-yl]methyl]pyridazin-3-amine] | 3.26 | 0.107 | 2.43 | 31.2 | –
5 | CC(C)(C)CCN1CCC2(CC1)CC2CNc1ccc(-c2ccccc2F)nn1 (stereo not shown) [Compound 26, N-[[6-(3,3-dimethylbutyl)-6-azaspiro[2.5]octan-2-yl]methyl]-6-(2-fluorophenyl)pyridazin-3-amine] | 3.40 | 0.192 | 2.98 | 13.3 | –
6 | O=C(Nc1ccc(-c2cc(F)ccc2Cl)nn1)C1CC12CCN(CC1CC3C=CC1C3)CC2 (stereo not shown) [Compound 18, 6-(5-bicyclo[2.2.1]hept-2-enylmethyl)-N-[6-(2-chloro-5-fluoro-phenyl)pyridazin-3-yl]-6-azaspiro[2.5]octane-2-carboxamide] | 4.72 | 3.09 | 3.46 | 870 | –
7 | CC(C)(C)CCN1CCC2(CC1)CC2CNc1ccc(-c2ccc3ccncc3c2)nn1 (stereo not shown) [Compound 44, N-[[6-(3,3-dimethylbutyl)-6-azaspiro[2.5]octan-2-yl]methyl]-6-(7-isoquinolyl)pyridazin-3-amine] | 3.41 | 0.0478 | 2.73 | 16 | –
8 | Cc1nn(C)c(C)c1-c1ccc(NCC2CC23CCN(CCC(C)(C)C)CC3)nn1 (stereo not shown) [Compound 36, N-[[6-(3,3-dimethylbutyl)-6-azaspiro[2.5]octan-2-yl]methyl]-6-(1,3,5-trimethylpyrazol-4-yl)pyridazin-3-amine] | 4.52 | 0.0328 | 2.61 | 6.1 | –
9 | Cc1nn(C)cc1-c1ccc(NCC2CC23CCN(CCC(C)(C)C)CC3)nn1 (stereo not shown) [Compound 50, N-[[6-(3,3-dimethylbutyl)-6-azaspiro[2.5]octan-2-yl]methyl]-6-(1,3-dimethylpyrazol-4-yl)pyridazin-3-amine] | 3.70 | 0.0158 | 2.71 | 2.4 | –
10 | CC(C)(C)CCN1CCC2(CC1)CC2CNc1ccc(-c2ccc3c(c2)OCO3)nn1 (stereo not shown) [Compound 46, 6-(1,3-benzodioxol-5-yl)-N-[[6-(3,3-dimethylbutyl)-6-azaspiro[2.5]octan-2-yl]methyl]pyridazin-3-amine] | 3.11 | 0.117 | 3.06 | 12.2 | –
11 | Fc1ccc(Cl)c(-c2ccc(NC[C@H]3CC34CCN(CC3CCCCC3)CC4)nn2)c1 [Compound 67, (S)-6-(2-chloro-5-fluoro-phenyl)-N-[[6-(cyclohexylmethyl)-6-azaspiro[2.5]octan-2-yl]methyl]pyridazin-3-amine] | 4.36 | 0.527 | 3.66 | 27.8 | –
12 | CC(C)(C)CCN1CCC2(CC1)CC2CNc1ccc(-c2ccc3ncccc3c2)nn1 (stereo not shown) [Compound 45, N-[[6-(3,3-dimethylbutyl)-6-azaspiro[2.5]octan-2-yl]methyl]-6-(6-quinolyl)pyridazin-3-amine] | 3.33 | 0.0539 | 2.89 | 9.08 | –
13 | CC(C)(C)CCN1CCC2(CC1)CC2CNc1ccc(Cl)nn1 (stereo not shown) [Compound 20, 6-chloro-N-[[6-(3,3-dimethylbutyl)-6-azaspiro[2.5]octan-2-yl]methyl]pyridazin-3-amine] | 5.14 | 1.09 | 3.47 | 270 | –

Second part, the compound after the results:

Row | Emin (rat M4) (Rat M4) [%] | IC50 (Rat M4; [1]) [µM] | Emin (human M4) (Human M4) [%] | IC50 (Human M4) [nM] | IC50 (Rat M4; cells printed in μM, decrease of the EC80 acetylcholine response) [µM] | Structure (SMILES)
14 | 3 | 0.0921 | 4 | 50.6 | – | Fc1ccc(Cl)c(-c2ccc(NC[C@@H]3CC34CCN(CC3CCCCCC3)CC4)nn2)c1 [Compound 109, (R)-6-(2-chloro-5-fluorophenyl)-N-((6-(cycloheptylmethyl)-6-azaspiro[2.5]octan-1-yl)methyl)pyridazin-3-amine]
15 | 4 | 0.015 | 5 | 11.9 | – | CC(=O)Nc1ccc(-c2nnc(NCC3CC34CCN(CCC(C)(C)C)CC4)c(C)c2C)cc1 (stereo not shown) [Compound 116, N-[4-[6-[[6-(3,3-dimethylbutyl)-6-azaspiro[2.5]octan-2-yl]methylamino]-4,5-dimethyl-pyridazin-3-yl]phenyl]acetamide]
16 | 4.14 | 0.0638 | 3.42 | 5.06 | – | Cc1nn(C)cc1-c1ccc(NCC2CC23CCN(CC2CCCCC2)CC3)nn1 (stereo not shown) [Compound 56, N-[[6-(cyclohexylmethyl)-6-azaspiro[2.5]octan-2-yl]methyl]-6-(1,3-dimethylpyrazol-4-yl)pyridazin-3-amine]
17 | 7.13 | 0.808 | 4.31 | 49.5 | – | CCC(C)CN1CCC2(CC1)CC2CNc1ccc(-c2cn(C)nc2C)nn1 (stereo not shown) [Compound 51, 6-(1,3-dimethylpyrazol-4-yl)-N-[[6-(2-methylbutyl)-6-azaspiro[2.5]octan-2-yl]methyl]pyridazin-3-amine]
18 | 4.48 | 1.5 | 4.04 | 495 | – | Fc1ccc(Cl)c(-c2ccc(NCC3CC34CCN(CC3CC5C=CC3C5)CC4)nc2)c1 (stereo not shown) [Compound 68, N-[[6-(5-bicyclo[2.2.1]hept-2-enylmethyl)-6-azaspiro[2.5]octan-2-yl]methyl]-5-(2-chloro-5-fluoro-phenyl)pyridin-2-amine]
19 | 3.84 | 0.534 | 3.30 | 69.1 | – | Cc1nn(C)cc1-c1ccc(NCC2CC23CCN(CC24CC5CC(CC(C5)C2)C4)CC3)nn1 (stereo not shown) [Compound 57, N-[[6-(1-adamantylmethyl)-6-azaspiro[2.5]octan-2-yl]methyl]-6-(1,3-dimethylpyrazol-4-yl)pyridazin-3-amine]
20 | 5 | 0.0165 | 3 | 8.18 | – | CC(=O)Nc1ccc(-c2ccc(NC[C@@H]3CC34CCN(CC3CCCCCC3)CC4)nn2)cc1 [Compound 119, N-[4-[6-[[(2R)-6-(cycloheptylmethyl)-6-azaspiro[2.5]octan-2-yl]methylamino]pyridazin-3-yl]phenyl]acetamide]
21 | 3 | 0.257 | 5 | 33.9 | – | c1cc(N2CCOCC2)nnc1NCC1CC12CCN(CC13CC4CC(CC(C4)C1)C3)CC2 (stereo not shown) [Compound 84, N-[[6-(1-adamantylmethyl)-6-azaspiro[2.5]octan-2-yl]methyl]-6-morpholino-pyridazin-3-amine]
22 | 5.80 | 0.578 | 3.9 | 18.6 | – | CCCC(C)CN1CCC2(CC1)CC2CNc1ccc(-c2cn(C)nc2C)nn1 (stereo not shown) [Compound 52, 6-(1,3-dimethylpyrazol-4-yl)-N-[[6-(2-methylpentyl)-6-azaspiro[2.5]octan-2-yl]methyl]pyridazin-3-amine]
